Data: US12564580B2, “Mitochondria-targeted isoketal/isolevuglandin scavengers and uses thereof” (Vanderbilt University, priority 2020, dated 2026)

Tests used:
[1] = Reaction with the IsoLG analog 4-oxopentanal; type: physicochemical; details: % of 2HOBA itself
Excerpt: In order to confirm the IsoLG scavenging properties of mito2HOBA, the present inventors studied its reaction with the IsoLG analog 4-oxopentanal as the present inventors described previously. Mito2HOBA was highly reactive with 4-oxopentanal with a reaction rate constant that was about 50% of 2HOBA itself (Supplemental FIG. 1S). […] The overall rate of IsoLG scavenging in physiological conditions depends both on the rate constant and the local concentration of the scavenger (V=k*[mito2HOBA]*[IsoLG]). […] This will result in low level of mito2HOBA in cytoplasm but high mitochondrial accumulation leading to specific scavenging of IsoLG in mitochondria (FIG. 3).

[2] = system: LPS-injected C57BL/6J mice; test: Survival in LPS model of sepsis; type: in vivo, mouse
Excerpt: All experimental procedures were approved by Vanderbilt and Mercer Institutional Animal Care and Use Committees. The use of LPS is well-established model of bacterial sepsis in rodents (1-3). The concentrations of LPS that can be used to induce sepsis in mice depend on many factors (source of LPS, age/size, and strains of animals, desired time of response, target of interest, etc.) and may vary between different manufactures. To test the protective properties of mito2HOBA, the present inventors used LPS from E. coli O111:B4 (Sigma L8274). […] The same lot of LPS was used throughout entire study.

## NCc1ccc(OCCCC[P+](c2ccccc2)(c2ccccc2)c2ccccc2)cc1O [mito2HOBA]
[1]
  reaction rate constant with 4-oxopentanal relative to 2HOBA: about 50%
[2]; 96 hours post-injection of LPS 25 μg/g, mito2HOBA 0.1 g/L drinking water
  increase of animal survival: 3 fold
[2]; LPS model of sepsis, mito2HOBA supplementation
  reduction of animal immediate and extended mortality: 3 fold
